The structures appear in SMILES notation.

A short description of this data set: Pharmacokinetics of aprepitant emulsion versus fosaprepitant solution, intravenous. The class given is in vivo, male Sprague-Dawley rats. The following applies: rat, 14 mg/kg aprepitant equivalent. How it is done: The pharmacokinetics of an aprepitant emulsion prepared according to Example 1 was determined. Two groups of six male Sprague-Dawley rats each were injected intravenously with, respectively, fosaprepitant in solution or aprepitant emulsion prepared according to Example 1. All drugs were administered at an effective concentration equivalent to 14 mg/kg aprepitant. Blood from all rats was collected at the appropriate time intervals and processed to plasma by centrifugation. Plasma samples were analyzed by LC-MS/MS for aprepitant and fosaprepitant, as appropriate. A plasma concentration versus time curve of aprepitant for the emulsion described in Example 1 and for fosaprepitant is presented in FIG. 2 (fosaprepitant in solution, •; aprepitant emulsion, ▴). The curves indicate the initial aprepitant level reached immediately after injection of the aprepitant emulsion was almost 3 times higher than the initial aprepitant level reached immediately after injection of the fosaprepitant solution.

On to `C[C@@H](O[C@H]1OCCN(Cc2nc(O)n(P(=O)(O)O)n2)[C@H]1c1ccc(F)cc1)c1cc(C(F)(F)F)cc(C(F)(F)F)c1` [fosaprepitant], for which the “Conversion of fosaprepitant to aprepitant” value is recorded as “delay in the conversion of fosaprepitant to aprepitant”.

The values are drawn from patent US20190231688A1, “METHOD OF ADMINISTERING EMULSION FORMULATIONS OF AN NK-1 RECEPTOR ANTAGONIST” (Heron Therapeutics, Inc., priority 2018, published 2019).
